Columns and labels:
Test in all cases: relative viability (nuclei count vs DMSO), 5 days (fraction); higher = more cells survive
SK-MES-1 = system: SK-MES-1
Method in brief: (§1)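 Relative viability equals treated-well nuclei counts divided by vehicle-well nuclei counts. Counts came from 4× images of lung cancer cell lines grown in 1536-well plates for 5 days after pin-tool dosing on the day after seeding. Dosing used one drug alone or a fixed anchor-drug dose plus five library-drug doses (not always all listed) in √10 steps, and values are medians of duplicate plates.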

NCI-H2170 = system: NCI-H2170
Method in brief: as §1

NCI-H647 = system: NCI-H647
Method in brief: as §1

HCC-827 = system: HCC-827
Method in brief: as §1

NCI-H1437 = system: NCI-H1437
Method in brief: as §1

NCI-H1395 = system: NCI-H1395
Method in brief: as §1

NCI-H1734 = system: NCI-H1734
Method in brief: as §1

SK-LU-1 = system: SK-LU-1
Method in brief: as §1

NCI-H1993 = system: NCI-H1993
Method in brief: as §1

NCI-H2342 = system: NCI-H2342
Method in brief: as §1

HARA = system: HARA
Method in brief: as §1

HCC-366 = system: HCC-366
Method in brief: as §1

NCI-H661 = system: NCI-H661
Method in brief: as §1

NCI-H1355 = system: NCI-H1355
Method in brief: as §1

NCI-H2009 = system: NCI-H2009
Method in brief: as §1

NCI-H2087 = system: NCI-H2087
Method in brief: as §1

LOU-NH91 = system: LOU-NH91
Method in brief: as §1

EKVX = system: EKVX
Method in brief: as §1

NCI-H2405 = system: NCI-H2405
Method in brief: as §1

BEN = system: BEN
Method in brief: as §1

SMILES: CCN(CC)CCCCNc1ncc2cc(-c3cc(OC)cc(OC)c3)c(NC(=O)NC(C)(C)C)nc2n1 + COc1cc2c(Oc3ccc(NC(=O)C4(C(=O)Nc5ccc(F)cc5)CC4)cc3F)ccnc2cc1OCCCN1CCOCC1 [Foretinib] (partner 0.25 µM)
- relative viability (SK-MES-1; first compound 0.01 µM): 0.973
- relative viability (SK-MES-1; first compound 0.03162 µM): 1.17
- relative viability (SK-MES-1; first compound 0.1 µM): 0.88
- relative viability (SK-MES-1; first compound 0.3162 µM): 1.12
- relative viability (SK-MES-1; first compound 1 µM): 0.889
- relative viability (NCI-H2170; first compound 0.01 µM): 0.929
- relative viability (NCI-H2170; first compound 0.03162 µM): 1.05
- relative viability (NCI-H2170; first compound 0.1 µM): 0.961
- relative viability (NCI-H2170; first compound 0.3162 µM): 1.08
- relative viability (NCI-H2170; first compound 1 µM): 0.999
- relative viability (NCI-H647; first compound 0.01 µM): 1.15
- relative viability (NCI-H647; first compound 0.03162 µM): 1.39
- relative viability (NCI-H647; first compound 0.1 µM): 1.43
- relative viability (NCI-H647; first compound 0.3162 µM): 1.55
- relative viability (NCI-H647; first compound 1 µM): 1.08
- relative viability (HCC-827; first compound 0.01 µM): 1.05
- relative viability (HCC-827; first compound 0.03162 µM): 1.01
- relative viability (HCC-827; first compound 0.1 µM): 1.19
- relative viability (HCC-827; first compound 0.3162 µM): 1.17
- relative viability (HCC-827; first compound 1 µM): 1.05
- relative viability (NCI-H1437; first compound 0.01 µM): 1.47
- relative viability (NCI-H1437; first compound 0.03162 µM): 1.21
- relative viability (NCI-H1437; first compound 0.1 µM): 1.3
- relative viability (NCI-H1437; first compound 0.3162 µM): 1.3
- relative viability (NCI-H1437; first compound 1 µM): 1.16
- relative viability (NCI-H1395; first compound 0.01 µM): 0.999
- relative viability (NCI-H1395; first compound 0.03162 µM): 1.02
- relative viability (NCI-H1395; first compound 0.1 µM): 0.912
- relative viability (NCI-H1395; first compound 0.3162 µM): 0.887
- relative viability (NCI-H1395; first compound 1 µM): 0.818
- relative viability (NCI-H1734; first compound 0.01 µM): 0.863
- relative viability (NCI-H1734; first compound 0.03162 µM): 0.828
- relative viability (NCI-H1734; first compound 0.1 µM): 0.83
- relative viability (NCI-H1734; first compound 0.3162 µM): 0.943
- relative viability (NCI-H1734; first compound 1 µM): 0.694
- relative viability (SK-LU-1; first compound 0.01 µM): 0.942
- relative viability (SK-LU-1; first compound 0.03162 µM): 0.78
- relative viability (SK-LU-1; first compound 0.1 µM): 1.12
- relative viability (SK-LU-1; first compound 0.3162 µM): 1.07
- relative viability (SK-LU-1; first compound 1 µM): 0.662
- relative viability (NCI-H1993; first compound 0.01 µM): 0.751
- relative viability (NCI-H1993; first compound 0.03162 µM): 0.791
- relative viability (NCI-H1993; first compound 0.1 µM): 0.934
- relative viability (NCI-H1993; first compound 0.3162 µM): 0.917
- relative viability (NCI-H1993; first compound 1 µM): 0.714
- relative viability (NCI-H2342; first compound 0.01 µM): 1.19
- relative viability (NCI-H2342; first compound 0.03162 µM): 1.23
- relative viability (NCI-H2342; first compound 0.1 µM): 1.19
- relative viability (NCI-H2342; first compound 0.3162 µM): 1.03
- relative viability (NCI-H2342; first compound 1 µM): 1
- relative viability (HARA; first compound 0.01 µM): 0.996
- relative viability (HARA; first compound 0.03162 µM): 0.848
- relative viability (HARA; first compound 0.1 µM): 0.998
- relative viability (HARA; first compound 0.3162 µM): 0.985
- relative viability (HARA; first compound 1 µM): 0.493
- relative viability (HCC-366; first compound 0.01 µM): 0.951
- relative viability (HCC-366; first compound 0.03162 µM): 0.941
- relative viability (HCC-366; first compound 0.1 µM): 1.05
- relative viability (HCC-366; first compound 0.3162 µM): 0.981
- relative viability (HCC-366; first compound 1 µM): 0.999
- relative viability (NCI-H661; first compound 0.01 µM): 1.07
- relative viability (NCI-H661; first compound 0.03162 µM): 1.04
- relative viability (NCI-H661; first compound 0.1 µM): 1.03
- relative viability (NCI-H661; first compound 0.3162 µM): 1.07
- relative viability (NCI-H661; first compound 1 µM): 1.02
- relative viability (NCI-H1355; first compound 0.01 µM): 1.01
- relative viability (NCI-H1355; first compound 0.03162 µM): 0.967
- relative viability (NCI-H1355; first compound 0.1 µM): 1.01
- relative viability (NCI-H1355; first compound 0.3162 µM): 1.1
- relative viability (NCI-H1355; first compound 1 µM): 0.991
- relative viability (NCI-H2009; first compound 0.01 µM): 1.33
- relative viability (NCI-H2009; first compound 0.03162 µM): 1.25
- relative viability (NCI-H2009; first compound 0.1 µM): 1.22
- relative viability (NCI-H2009; first compound 0.3162 µM): 1.29
- relative viability (NCI-H2009; first compound 1 µM): 1.18
- relative viability (NCI-H2087; first compound 0.01 µM): 1.25
- relative viability (NCI-H2087; first compound 0.03162 µM): 1.13
- relative viability (NCI-H2087; first compound 0.1 µM): 1.45
- relative viability (NCI-H2087; first compound 0.3162 µM): 1.16
- relative viability (NCI-H2087; first compound 1 µM): 1.21
- relative viability (LOU-NH91; first compound 0.01 µM): 0.927
- relative viability (LOU-NH91; first compound 0.03162 µM): 0.916
- relative viability (LOU-NH91; first compound 0.1 µM): 0.959
- relative viability (LOU-NH91; first compound 0.3162 µM): 0.977
- relative viability (LOU-NH91; first compound 1 µM): 0.912
- relative viability (EKVX; first compound 0.01 µM): 0.589
- relative viability (EKVX; first compound 0.03162 µM): 0.471
- relative viability (EKVX; first compound 0.1 µM): 0.781
- relative viability (EKVX; first compound 0.3162 µM): 0.949
- relative viability (EKVX; first compound 1 µM): 0.758
- relative viability (NCI-H2405; first compound 0.01 µM): 1.05
- relative viability (NCI-H2405; first compound 0.03162 µM): 1.05
- relative viability (NCI-H2405; first compound 0.1 µM): 1.03
- relative viability (NCI-H2405; first compound 0.3162 µM): 1.07
- relative viability (NCI-H2405; first compound 1 µM): 1.04
- relative viability (BEN; first compound 0.01 µM): 0.597
- relative viability (BEN; first compound 0.03162 µM): 0.544
- relative viability (BEN; first compound 0.1 µM): 0.796
- relative viability (BEN; first compound 0.3162 µM): 0.618
- relative viability (BEN; first compound 1 µM): 0.382
